Measured values as given in PMC10574767, “Extractives from Artemisia afra with Anti-Bacterial and Anti-Fungal Properties” (Plants, 2023).
≈ marks a conversion by molar mass, not a printed value.

Key:
Staphylococcus aureus = tested on: Staphylococcus aureus; design: method as in ref 36 = [36]; 36. Koay Y.C. Wong K.C. Hasnah O. Ibrahim E.M.S. Mohammad Z.A. Chemical constituents and biological activities of Strobilanthes crispus L. Rec. Nat. Prod. 2013 7 59 64; details: cited from earlier work
[1] = tested on: Aspergillus niger, Aspergillus flavus, Rhizoctonia phaseoli, and Penicillium chrysogenum; design: method as in ref 38 = [38]; 38. ur Rahman U. Durrani S. Ubaidullah S.A. ur Rahman S. Anti-pyretic activity of taraxerol acetate KJMS 2016 9 165; details: 1 mg/disc; cited from earlier work
Candida albicans = tested on: Candida albicans; design: method as in PMID 19844829, PMID 35453556; details: cited from earlier work
Bacillus subtilis = tested on: Bacillus subtilis; design: method as in ref 36 = [36]; 36. Koay Y.C. Wong K.C. Hasnah O. Ibrahim E.M.S. Mohammad Z.A. Chemical constituents and biological activities of Strobilanthes crispus L. Rec. Nat. Prod. 2013 7 59 64; details: cited from earlier work
T. mentagrophytes = tested on: T. mentagrophytes; design: method as in PMID 19844829, PMID 35453556; details: cited from earlier work
[2] = tested on: Escherichia coli ATCC 25922; assay: Serial dilution microplate MIC; type: cell-based; details: Table 2
Method: (§1) The MIC value of the plant extracts and isolated compounds against one fungal and five bacterial strains (Salmonella Typhimurium ATCC 39183, Escherichia coli ATCC 25922, Pseudomonas aeruginosa ATCC 27853, Staphylococcus aureus ATCC 29213, Enterococcus faecalis ATCC 29212, and fungi culture, Candida albicans ATCC 10231) was assessed in triplicate using the serial dilution microplate method; acetone and DMSO were used as solvents. Bacterial cultures were grown in Mueller Hinton broth (Sigma Aldrich, St. Louis, MO, USA) overnight and adjusted to McFarland standard 1 (1 × 10^8 CFU/mL). Then, 100 µL of samples were transferred into the first well of a sterile 96-well microtiter plate, which contained 100 µL of water and a 1:1 serial dilution with sterilized distilled water was carried out. In each well, 100 µL of appropriately adjusted fungal or bacterial cultures were added, and the bacteria were subjected to final concentrations of 250–3.9 μg/mL for pure compounds and 2.5–0.02 mg/mL for crude extracts. Amphotericin-B and Gentamicin (Virbac, Carros, France) served as positive controls for fungi and bacteria, respectively. For sterility, water served as control, while acetone served as a negative control. The microplates were then incubated for 24 h at 37 °C. Following incubation, 40 µL of 0.2 mg/mL p-iodonitrotetrazolium violet (INT, Sigma Aldrich) dissolved in water (hot) was added to the wells before being incubated at 37 °C for another 2 h. In the case of fungi, the INT was added before incubation. The MIC was measured visually as the lowest concentration of the compounds/extracts that inhibited proliferation.

[3] = tested on: Enterococcus faecalis ATCC 29212; assay: Serial dilution microplate MIC; type: cell-based; details: Table 2
Method: as §1

[4] = tested on: Salmonella Typhimurium ATCC 39183; assay: Serial dilution microplate MIC; type: cell-based; details: Table 2
Method: as §1

[5] = tested on: Staphylococcus aureus ATCC 29213; assay: Serial dilution microplate MIC; type: cell-based; details: Table 2
Method: as §1

[6] = tested on: Pseudomonas aeruginosa ATCC 27853; assay: Serial dilution microplate MIC; type: cell-based; details: Table 2
Method: as §1

[7] = tested on: Staphylococcus aureus, Bacillus thuringiensis, Escherichia coli, Enterobacter cloacae, and Klebsiella pneumoniae; design: method as in PMID 12120818; details: 1 mg of compound; cited from earlier work
[8] = tested on: Candida albicans ATCC 10231; assay: Serial dilution microplate MIC (fungi); type: cell-based; details: Table 2
Method: as §1

HeLa = tested on: HeLa; design: method as in PMID 35453556, PMID 21294076; details: cited from earlier work
C. albicans = tested on: C. albicans; design: method as in ref 35 = [35]; 35. Naika H.R. Krishna V. Harish B.G. Khadeer Ahamed B.M. Mahadevan K.M. Antimicrobial Activity of Bioactive Constituents Isolated from the Leaves of Naravelia zeylanica (L.) DC Int. J. Res. Pharm. Bi; details: cited from earlier work
Salmonella Typhimurium = tested on: Salmonella Typhimurium; design: method as in ref 36 = [36]; 36. Koay Y.C. Wong K.C. Hasnah O. Ibrahim E.M.S. Mohammad Z.A. Chemical constituents and biological activities of Strobilanthes crispus L. Rec. Nat. Prod. 2013 7 59 64; details: cited from earlier work

CC1(C)CC[C@]2(C)CC=C3[C@]4(C)CC[C@H]5C(C)(C)[C@@H](O)CC[C@]5(C)[C@H]4CC[C@@]3(C)[C@@H]2C1 [Compound 3β-Taraxerol, 3β-taraxerol]
MIC Staphylococcus aureus (Staphylococcus aureus): 15.6 µg/mL (≈ 36.6 µM)
Anti-fungal activity against four fungi [1]: weak anti-fungal activities
MIC Candida albicans (Candida albicans): 25 µg/mL (≈ 58.6 µM)
MIC Bacillus subtilis (Bacillus subtilis): 15.6 µg/mL (≈ 36.6 µM)
MIC T. mentagrophytes (T. mentagrophytes): 12.5 µg/mL (≈ 29.3 µM)
MIC ([2]; Escherichia coli, ATCC25922, isolated compounds, read-out: Minimum inhibitory concentration (MIC) E. coli): 250 µg/mL (≈ 586 µM)
Selectivity index E. coli ([2]; in brackets, Vero LC50 vs MIC): > 0.8
MIC ([3]; Enterococcus faecalis, ATCC29212, isolated compounds, read-out: Minimum inhibitory concentration (MIC) E. faecalis): > 250 µg/mL
Selectivity index E. faecalis ([3]; in brackets, Vero LC50 vs MIC): < 0.8
MIC ([4]; Salmonella enterica, isolated compounds, read-out: Minimum inhibitory concentration (MIC) S. Typhimurium): 250 µg/mL (≈ 586 µM)
Selectivity index S. Typhimurium ([4]; in brackets, Vero LC50 vs MIC): > 0.8
MIC ([5]; Staphylococcus aureus, ATCC29213, isolated compounds, read-out: Minimum inhibitory concentration (MIC) S. aureus): 250 µg/mL (≈ 586 µM)
Selectivity index S. aureus ([5]; in brackets, Vero LC50 vs MIC): > 0.8
MIC ([6]; Pseudomonas aeruginosa, ATCC27853, isolated compounds, read-out: Minimum inhibitory concentration (MIC) P. aeruginosa): > 250 µg/mL
Selectivity index P. aeruginosa ([6]; in brackets, Vero LC50 vs MIC): < 0.8
Antimicrobial activity against two Gram-positive and three Gram-negative bacteria [7]: moderate antimicrobial activity
MIC ([8]; Candida albicans, ATCC10231, isolated compounds, read-out: Minimum inhibitory concentration (MIC) C. albicans): 250 µg/mL (≈ 586 µM)
Selectivity index C. albicans ([8]; in brackets, Vero LC50 vs MIC): > 0.8
Cytotoxicity HeLa (HeLa): inactive
Activity against C. albicans (C. albicans): no activity
MIC Salmonella Typhimurium (Salmonella Typhimurium): 62.5 µg/mL (≈ 146 µM)
